Experimental findings from patent US8183001B2 (priority 2006, dated 2012) are described below.

One test deals with M1-M2-linker chimera (Caenorhabditis elegans, UniProt G5ECD3+G5EE10). The format is cell-based, C. elegans. The following applies: 5 μM PS, 100 μM GABA. As for the experimental part: (§1) Electrophysiology: Plasmids containing wild-type and mutagenized GABAA receptor subunits were linearized and transcribed in vitro using T3 RNA polymerase (mMessage mMachine T3 kit, Ambion, Austin Tex.). UNC-49B mRNA was injected into Xenopus laevis oocytes at 0.5 μg/μl either alone, or in a mixture with 0.5 μg/μl UNC-49C. […] The injection volume ranged between 27.6 nl to 50.6 nl. […] Cells were voltage clamped at −60 mV. All recordings were performed at room temperature.
(§2) The strategy represents a deletion of UNC-49C material from the carboxy to amino terminal end of the transmembrane portion of the subunit, which is then replaced with UNC-49B sequences.

The target in another test is M1-M2 chimera (Caenorhabditis elegans, UniProt G5ECD3+G5EE10). Kind of test: Xenopus oocyte two electrode voltage-clamp, GABA-evoked currents. The format is cell-based, C. elegans. Particulars: 5 μM PS, 1000 μM GABA, versus M1-M2-linker chimera. As for the experimental part: as §1, §2
(Two-electrode voltage clamp holds a large cell at a set potential and records current.)

The target in another test is Y(T257F/M258L) (Caenorhabditis elegans, UniProt G5ECD3, I265S/I267V/I270L/M258L/N259Q/N305R/T257F/T269V/V261F/V273I). The format is cell-based, C. elegans. The following applies: at EC50 GABA. Here is the method:
as §1
(§3) Important residues in the X segment were tested by substituting UNC-49C residues into the Y chimera. […] These divergent X segment residues were tested by mutating them from UNC-49B to UNC-49C amino acids in the Y chimera background.

For another test, the target named is Y(T257F) (Caenorhabditis elegans, UniProt G5ECD3, I265S/I267V/I270L/N259Q/N305R/T257F/T269V/V261F/V273I). The format is cell-based, C. elegans. Here is the method: as §1, §3
The next test deals with Y(T257F/S264A) (Caenorhabditis elegans, UniProt G5ECD3, I265S/I267V/I270L/N259Q/N305R/S264A/T257F/T269V/V261F/V273I). The format is cell-based, C. elegans. As for the experimental part: as §1, §3
Another test addresses Y(T257F/M258L/S264A) (Caenorhabditis elegans, UniProt G5ECD3, I265S/I267V/I270L/M258L/N259Q/N305R/S264A/T257F/T269V/V261F/V273I). It is filed as cell-based, C. elegans. The following applies: at EC50 GABA. Here is the method: as §1, §3
The target in a further test is Y(S264A) (Caenorhabditis elegans, UniProt G5ECD3, I265S/I267V/I270L/N259Q/N305R/S264A/T269V/V261F/V273I). It is filed as cell-based, C. elegans. The following applies: at EC50 GABA. Here is the method: as §1, §3
Test [1] deals with UNC-49B-PS7 (Caenorhabditis elegans, UniProt G5ECD3, I262F/I265S/M258L/N259Q/N305R/S264A/T257F). It is filed as cell-based, C. elegans. Particulars: UNC-49B-PS7; at EC50 GABA. As for the experimental part:
as §1

Test [2] concerns XY chimera. The format is cell-based, C. elegans. Particulars: XY chimera versus X chimera. Here is the method:
as §1

The target in another test is YZ chimera (Caenorhabditis elegans, UniProt G5ECD3, A281S/E280D/I265S/I267V/I270L/L277I/N259Q/N305R/S282A/T269V/V261F/V273I). It is filed as cell-based, C. elegans. The following applies: at EC50 GABA. As for the experimental part:
as §1

The next test concerns X(I265S, Q259N). The format is cell-based, C. elegans. The following applies: residue 259 reverted to asparagine, versus X(I265S). Here is the method: as §1
Another test concerns the target N305R (Caenorhabditis elegans, UniProt G5ECD3, N305R). The format is cell-based, C. elegans. Particulars: at EC50 GABA. Here is the method:
as §1

The target in the next test is X chimera (Caenorhabditis elegans, UniProt G5ECD3, I262F/M258L/N259Q/N305R/S264A/T257F/V261F). It is filed as cell-based, C. elegans. The following applies: at EC50 GABA. As for the experimental part: as §1
The test system of test [3] is UNC-49B-PS7. The format is cell-based, C. elegans. Here is the method:
as §1

A further test deals with M1-R (Caenorhabditis elegans, UniProt G5ECD3+G5EE10, N305R, form not given). The format is cell-based, C. elegans. The following applies: at EC50 GABA. Here is the method: as §1
For another test, the target named is X(V273I) (Caenorhabditis elegans, UniProt G5ECD3, I262F/M258L/N259Q/N305R/S264A/T257F/V261F/V273I). It is filed as cell-based, C. elegans. Particulars: at EC50 GABA. As for the experimental part: as §1
The target of the next test is X(I267V) (Caenorhabditis elegans, UniProt G5ECD3, I262F/I267V/M258L/N259Q/N305R/S264A/T257F/V261F). The format is cell-based, C. elegans. The following applies: at EC50 GABA. As for the experimental part: as §1
The target in test [4] is XY chimera (Caenorhabditis elegans, UniProt G5ECD3, I262F/I265S/I267V/I270L/M258L/N259Q/N305R/S264A/T257F/T269V/V261F/V273I). The format is cell-based, C. elegans. The following applies: XY chimera; at EC50 GABA. As for the experimental part:
as §1

The target of the next test is UNC-49B/C heteromer (Caenorhabditis elegans, UniProt G5ECD3+G5EE10). It is filed as cell-based. Particulars: UNC-49B/C heteromer. As for the experimental part:
as §1

UNC-49B/C heteromer, sequence (G5EE10 entry or part of it): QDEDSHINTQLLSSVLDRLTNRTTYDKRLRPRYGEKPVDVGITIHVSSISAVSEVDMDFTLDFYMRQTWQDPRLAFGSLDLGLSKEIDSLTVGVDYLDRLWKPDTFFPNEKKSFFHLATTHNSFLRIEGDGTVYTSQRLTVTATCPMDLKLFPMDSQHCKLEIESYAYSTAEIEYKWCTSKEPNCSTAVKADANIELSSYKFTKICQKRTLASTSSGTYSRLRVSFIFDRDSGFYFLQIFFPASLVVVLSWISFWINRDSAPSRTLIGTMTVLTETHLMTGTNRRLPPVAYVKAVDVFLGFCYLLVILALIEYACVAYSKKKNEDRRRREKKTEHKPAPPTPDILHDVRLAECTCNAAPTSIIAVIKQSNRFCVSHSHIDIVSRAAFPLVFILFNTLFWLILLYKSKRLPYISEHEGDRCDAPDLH
UNC-49B/C heteromer, sequence (G5ECD3 entry or part of it): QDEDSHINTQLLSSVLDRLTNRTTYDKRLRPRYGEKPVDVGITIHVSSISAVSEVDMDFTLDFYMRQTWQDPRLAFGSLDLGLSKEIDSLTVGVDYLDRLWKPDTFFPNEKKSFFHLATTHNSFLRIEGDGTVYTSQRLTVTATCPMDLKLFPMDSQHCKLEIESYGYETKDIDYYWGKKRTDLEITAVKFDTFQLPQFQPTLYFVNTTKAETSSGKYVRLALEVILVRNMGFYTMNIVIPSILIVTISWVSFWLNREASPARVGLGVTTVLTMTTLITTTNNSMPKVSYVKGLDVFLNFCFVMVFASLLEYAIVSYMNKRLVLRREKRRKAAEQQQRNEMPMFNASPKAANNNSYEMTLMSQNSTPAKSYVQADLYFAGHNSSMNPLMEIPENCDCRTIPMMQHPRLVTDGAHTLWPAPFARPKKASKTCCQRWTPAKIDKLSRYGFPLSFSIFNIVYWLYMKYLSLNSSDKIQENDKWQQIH
Y(T257F), sequence (G5ECD3 23-506, stated change not applied): as the sequence (G5ECD3 entry or part of it) above
Y(T257F/S264A), sequence (G5ECD3 23-506, stated change not applied): as the sequence (G5ECD3 entry or part of it) above
M1-M2 chimera, sequence (G5ECD3 23-506, change not shown): as the sequence (G5ECD3 entry or part of it) above
M1-M2 chimera, sequence (G5EE10 256-304, change not shown): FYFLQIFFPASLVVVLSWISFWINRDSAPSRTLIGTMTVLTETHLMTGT
UNC-49B-PS7 (Caenorhabditis elegans, UniProt G5ECD3, I262F/I265S/M258L/N259Q/N305R/S264A/T257F), sequence (G5ECD3 23-506, stated change not applied): as the sequence (G5ECD3 entry or part of it) above
Y(T257F/M258L/S264A), sequence (G5ECD3 23-506, stated change not applied): as the sequence (G5ECD3 entry or part of it) above
XY chimera (Caenorhabditis elegans, UniProt G5ECD3, I262F/I265S/I267V/I270L/M258L/N259Q/N305R/S264A/T257F/T269V/V261F/V273I), sequence (G5ECD3 23-506, stated change not applied): as the sequence (G5ECD3 entry or part of it) above
M1-M2-linker chimera, sequence (G5ECD3 23-506, stated change not applied): as the sequence (G5ECD3 entry or part of it) above
M1-M2-linker chimera, sequence (G5EE10 256-315, stated change not applied): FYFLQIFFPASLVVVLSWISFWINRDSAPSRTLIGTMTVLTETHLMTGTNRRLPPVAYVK
Y(T257F/M258L), sequence (G5ECD3 23-506, stated change not applied): as the sequence (G5ECD3 entry or part of it) above
Y(S264A), sequence (G5ECD3 23-506, stated change not applied): as the sequence (G5ECD3 entry or part of it) above
X chimera, sequence (G5ECD3 23-506, stated change not applied): as the sequence (G5ECD3 entry or part of it) above
X(V273I), sequence (G5ECD3 23-506, stated change not applied): as the sequence (G5ECD3 entry or part of it) above
YZ chimera, sequence (G5ECD3 23-506, stated change not applied): as the sequence (G5ECD3 entry or part of it) above
N305R, sequence (G5ECD3 23-506, stated change not applied): as the sequence (G5ECD3 entry or part of it) above
X(I267V), sequence (G5ECD3 23-506, stated change not applied): as the sequence (G5ECD3 entry or part of it) above
M1-R, sequence (G5ECD3 entry or part of it, stated change not applied): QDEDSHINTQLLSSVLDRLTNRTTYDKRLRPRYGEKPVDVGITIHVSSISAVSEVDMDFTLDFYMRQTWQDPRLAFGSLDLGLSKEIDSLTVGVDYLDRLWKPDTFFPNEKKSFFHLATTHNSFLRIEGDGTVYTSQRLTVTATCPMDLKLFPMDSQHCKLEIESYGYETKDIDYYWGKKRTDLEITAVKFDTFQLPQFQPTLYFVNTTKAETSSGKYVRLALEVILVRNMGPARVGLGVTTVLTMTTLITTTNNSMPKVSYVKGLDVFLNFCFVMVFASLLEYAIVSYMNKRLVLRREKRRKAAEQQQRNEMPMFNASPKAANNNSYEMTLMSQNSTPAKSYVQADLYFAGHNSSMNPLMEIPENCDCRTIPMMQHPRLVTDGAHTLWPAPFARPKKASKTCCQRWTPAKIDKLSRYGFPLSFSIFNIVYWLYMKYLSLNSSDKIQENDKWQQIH
M1-R, sequence (G5EE10 256-283, stated change not applied): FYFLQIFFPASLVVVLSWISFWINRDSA

In the case of pregnenolone sulfate [PS], the figures for the PS sensitivity result on M1-M2-linker chimera and at M1-M2 chimera were “equally sensitive to 5 μM PS as the TM chimera” and “significantly less PS sensitive”, respectively. The “PS Slope coefficient” value at Y(T257F/M258L) is given as 2.3 ± 0.2; on Y(T257F) (Y(T257F), at EC50 GABA), 1.3 ± 0.06; on Y(T257F/S264A) (Y(T257F/S264A), at EC50 GABA) it was 0.9 ± 0.08; on Y(T257F/M258L/S264A) it was 1.44 ± 0.1; on Y(S264A), 5.3 ± 1.8; on UNC-49B-PS7 [1] it was 1.0 ± 0.0. For the same substance, the “PS Slope coefficient” value at YZ chimera is 3.5 ± 1.6; at N305R, 1.9 ± 0.2 (n = 4); at X chimera it was 1.0 ± 0.03; at M1-R, 1.2 ± 0.1 (n = 8); on X(V273I), 1.0 ± 0.02; on X(I267V), 1.1 ± 0.05. The “PS Slope coefficient” value is recorded as 1.6 ± 0.2 at XY chimera [4] and 0.9 ± 0.1 (n = 4) on UNC-49B/C heteromer (at EC50 GABA). The “reduction of the holding current by PS alone, relative to EC50 GABA-evoked current” value at Y(T257F) (T257F point mutant, 100 μM PS) is on record as 6-20%; at Y(T257F/S264A) (T257F/S264A point mutant, 100 μM PS), 6-20%. In addition, the “fold increase in PS sensitivity” value in the test on XY chimera [2] is 3.7 fold; in the test on UNC-49B-PS7 [3] (UNC-49B-PS7 versus UNC-49B subunit), 58 fold. For the same substance, in the test with X(I265S, Q259N), the “fold reduction in PS sensitivity” value is given as 2.2 fold. In addition, the “fold difference in PS sensitivity” value in the test on UNC-49B-PS7 [3] (UNC-49B-PS7 versus UNC-49B/C heteromer) was 1.4 fold. At UNC-49B/C heteromer (100 μM PS, EC50 GABA), the “inhibition of GABA-evoked current” value came out at 95%.
